Data from US20230293629A1, “METHODS FOR ATTENUATING RELEASE OF INFLAMMATORY MEDIATORS AND PEPTIDES USEFUL THEREIN” (BIOMARCK PHARMACEUTICALS LTD., priority 2006, published 2023).
Where a SMILES comes first, the peptide text is derived from it. Where no end group is shown, it is not given here. The star is where a group is joined. Myristoyl = CCCCCCCCCCCCCC(=O)*

Key:
[1] = tested on: U937 cells; test: PMA-stimulated lysozyme secretion by U937 cells; type: cell-based, human; conditions: 50 μM test peptide, two hour incubation with 100 nM PMA; U937 cells
Procedure: (§1) Three types of human leukocyte cell lines, specifically the promyelocytic cell line HL-60 clone 15, the monocytic cell line U937, and the lymphocyte natural killer cell line NK-92 were purchased from American Type Culture Collection (ATCC; Rockville, MD). HL-60 clone 15 cells (ATCC CRL-1964) were maintained in medium consisting of RPMI 1640 with L-glutamine supplemented with 10% heat-inactivated fetal bovine serum (Gibco; Invitrogen Co., Carlsbad, CA), 50 IU/ml penicillin, 50 μg/mL streptomycin, and 25 mM HEPES buffer, pH 7.8, at 37° C. in an atmosphere containing 5% CO2. Final differentiation to an eosinophil-like phenotype was initiated by culturing cells at 5×10^5 cells/ml in the above medium containing 0.5 mM butyric acid (Sigma-Aldrich Co.) for 5 days as previously described (Tiffany H L, Li F, Rosenberg H F. Hyperglycosylation of eosinophil ribonucleases in a promyelocytic leukemia cell line and in differentiated peripheral blood progenitor cells. J Leukoc Biol 1995; 58:49-54; Tiffany H L, Alkhatib G, Combadiere C, Berger E A, Murphy P M. CC chemokine receptors 1 and 3 are differentially regulated by IL-5 during maturation of eosinophilic HL-60 cells. J Immunol 1998; 160:1385-1392). U937 cells (ATCC CRL-1593.2) were grown at 37° C. in an atmosphere of 5% CO2 in complete medium consisting of RPMI 1640 with L-glutamine supplemented with 10% FBS, 50 IU/ml penicillin, and 50 μg/mL streptomycin. NK-92 cells (ATCC CRL-2407) were maintained in alpha-MEM medium (Sigma-Aldrich Co.) supplemented with 20% FBS, 100 U/ml of interleukin-2 (IL-2) (Chemicon International, Inc., Temecula, CA), 5×10^−5 M of 2-mercaptoethanol, 50 IU/mL penicillin, and 50 μg/ml streptomycin at 37° C. in an atmosphere containing 5% CO2. Cell morphology was judged by assessment of Wright-Giemsa-stained cells. Viability of cells harvested for experiments was assessed by trypan blue exclusion and populations of cells with viability >95% were used.
(§2) HL-60 clone 15, U937, and NK-92 cells were washed and resuspended at 2.5×10^6 cells/ml in phenol red-free RPMI-1640 (Cellgro; Mediatech, Inc.) for all degranulation assays. Aliquots of cells in 15 ml tubes were preincubated with indicated concentrations of MANS, RNS, or a test peptide for 10 min at 37° C. The cells then were stimulated with PMA for up to 2 hr. A control reference (PMA control reference) was established for each cell type using HL-60 clone 15, U937, and NK-92 cells, respectively, which were washed and resuspended at 2.5×10^6 cells/ml in phenol red-free RPMI-1640 and stimulated with PMA but in the absence of MANS, RNS, or a test peptide for the same time periods. The reaction was terminated by placing tubes on ice and centrifuging cells at 400 g for 5 min at 4° C.
(§3) For measurements of released MPO from neutrophils and released lysozyme from U937 cells, we were able to quantify secretion by using as standards human MPO and egg white […], respectively. For released EPO from HL-60 clone 15 cells and for released granzyme from NK-92 cells, no standards were available to use for quantification. […] To measure intracellular EPO in HL-60 clone 15 cells and intracellular granzyme in NK-92 cells, appropriate aliquots of 0.1% triton X-100-lysed cells were taken for quantification of intracellular granule proteins as described below. All treatments were expressed as percentage of control to minimize variability between cultures.
Lysozyme secreted by U937 cells was measured using a spectrophotometric assay as described previously (Balboa M A, Saez Y, Balsinde J. Calcium-independent phospholipase A2 is required for lysozyme secretion in U937 promonocytes. J Immunol 2003; 170:5276-5280) with slight modification. Thus, 100 μL of sample was mixed with 100 μL of a Micrococcus lysodeikticus (Sigma-Aldrich Co.) suspension (0.3 mg/ml in 0.1 M sodium phosphate buffer, pH 7.0) in a 96-well microplate. The decrease in absorbance at 450 nm was measured at room temperature. […]

[2] = tested on: HL-60 clone 15 cells; test: PMA-stimulated EPO release from HL-60 clone 15 cells; type: cell-based, human; conditions: 50 μM test peptide, two hour incubation with 100 nM PMA; HL-60 clone 15 cells
Procedure: as §1, §2, §3
EPO activity released by HL-60 clone 15 cells was assayed using TMB according to a previously established technique (Lacy P, Mahmudi-Azer S, Bablitz B, Hagen S C, Velazquez J R, Man S F, Moqbel R. Rapid mobilization of intracellularly stored RANTES in response to interferon-gamma in human eosinophils. Blood 1999; 94:23-32). Thus, 100 μL of TMB substrate solution was added to 50 μL=microliters) of sample in a 96-well microplate and incubated at room temperature for 15 min (min=minutes). […]

[3] = Qualitative solubility of peptides in 0.5 N saline, pH 6.5

Molecule | % Inhibition Lysozyme [1] | % Inhibition EPO [2] | solubility [3]
CCCCCCCCCCCCCC(=O)NCC(=O)N[C@@H](C)C(=O)N[C@@H](CCC(N)=O)C(=O)N[C@@H](Cc1ccccc1)C(=O)N[C@@H](CO)C(=O)N[C@@H](CCCCN)C(=O)N[C@H](C(=O)N[C@@H](C)C(=O)N[C@@H](C)C(=O)N[C@@H](CCCCN)C(=O)NCC(=O)N[C@@H](CCC(=O)O)C(=O)N[C@@H](C)C(=O)N[C@@H](C)C(=O)N[C@@H](C)C(=O)N[C@@H](CCC(=O)O)C(=O)N[C@@H](CCCNC(=N)N)C(=O)N1CCC[C@H]1C(=O)NCC(=O)N[C@@H](CCC(=O)O)C(=O)O)[C@@H](C)O (Myristoyl-GAQFSKTAAKGEAAAERPGE-OH; C-terminus assumed) | 99% | 33.6% | 
CCCCCCCCCCCCCC(=O)N[C@@H](CO)C(=O)N[C@@H](CCCCN)C(=O)N[C@H](C(=O)N[C@@H](C)C(=O)N[C@@H](C)C(=O)N[C@@H](CCCCN)C(=O)NCC(=O)N[C@@H](CCC(=O)O)C(=O)N[C@@H](C)C(=O)N[C@@H](C)C(=O)N[C@@H](C)C(=O)N[C@@H](CCC(=O)O)C(=O)N[C@@H](CCCNC(=N)N)C(=O)N1CCC[C@H]1C(=O)NCC(=O)N[C@@H](CCC(=O)O)C(=O)N[C@@H](C)C(=O)N[C@@H](C)C(=O)N[C@H](C(=O)N[C@@H](C)C(=O)O)C(C)C)[C@@H](C)O (Myristoyl-SKTAAKGEAAAERPGEAAVA-OH; C-terminus assumed) | 99% | 0% | > 80 mg/mL
CC(=O)N[C@@H](C)C(=O)N[C@@H](C)C(=O)NCC(=O)N[C@@H](CCC(=O)O)C(=O)O [Ac-AAGE, AAGE] (Ac-AAGE-OH; C-terminus assumed) | 36.9% | 39.1% | > 200 mg/mL
CC(=O)N[C@@H](C)C(=O)N[C@@H](CCCCN)C(=O)NCC(=O)N[C@@H](CCC(=O)O)C(=O)O [Ac-AKGE, AKGE] (Ac-AKGE-OH; C-terminus assumed) | 7.2% | 87.6% | > 200 mg/mL
CC(=O)N[C@@H](C)C(=O)N[C@@H](CCCCN)C(=O)NCC(=O)N[C@@H](CCC(=O)O)C(N)=O [Ac-AKGE-NH2, AKGE] (Ac-AKGE-NH2) | 26.8% | 45.6% | > 200 mg/mL
CCCCCCCCCCCCCC(=O)N[C@@H](C)C(=O)N[C@@H](C)C(=O)N[C@@H](C)C(=O)N[C@@H](CCC(=O)O)C(=O)N[C@@H](CCCNC(=N)N)C(=O)N1CCC[C@H]1C(=O)NCC(=O)N[C@@H](CCC(=O)O)C(=O)N[C@@H](C)C(=O)N[C@@H](C)C(=O)N[C@H](C(=O)N[C@@H](C)C(=O)O)C(C)C [MA-AAAERPGEAAVA, AAAERPGEAAVA] (Myristoyl-AAAERPGEAAVA-OH; C-terminus assumed) | 98% | 21.6% | < 20 mg/mL
CCCCCCCCCCCCCC(=O)N[C@@H](C)C(=O)N[C@@H](C)C(=O)N[C@@H](CCCCN)C(=O)NCC(=O)N[C@@H](CCC(=O)O)C(=O)N[C@@H](C)C(=O)O [MA-AAKGEA, AAKGEA] (Myristoyl-AAKGEA-OH; C-terminus assumed) | 28.6% | 31.4% | < 1 mg/mL
CCCCCCCCCCCCCC(=O)N[C@@H](C)C(=O)N[C@@H](CCCCN)C(=O)NCC(=O)N[C@@H](CCC(=O)O)C(=O)O [MA-AKGE, AKGE] (Myristoyl-AKGE-OH; C-terminus assumed) | 28.6% | 0% | < 1 mg/mL
CCCCCCCCCCCCCC(=O)N[C@@H](C)C(=O)N[C@@H](CCCCN)C(=O)NCC(=O)N[C@@H](CCC(=O)O)C(=O)N[C@@H](C)C(=O)N[C@@H](C)C(=O)N[C@@H](C)C(=O)N[C@@H](CCC(=O)O)C(=O)N[C@@H](CCCNC(=N)N)C(=O)N1CCC[C@H]1C(=O)NCC(=O)N[C@@H](CCC(=O)O)C(=O)N[C@@H](C)C(=O)N[C@@H](C)C(=O)N[C@H](C(=O)N[C@@H](C)C(=O)O)C(C)C [MA-AKGEAAAERPGEAAVA, AKGEAAAERPGEAAVA] (Myristoyl-AKGEAAAERPGEAAVA-OH; C-terminus assumed) | 98% | 18.1% | > 80 mg/mL
CCCCCCCCCCCCCC(=O)NCC(=O)N[C@@H](C)C(=O)N[C@@H](CCC(N)=O)C(=O)N[C@@H](Cc1ccccc1)C(=O)N[C@@H](CO)C(=O)N[C@@H](CCCCN)C(=O)N[C@H](C(=O)N[C@@H](C)C(=O)N[C@@H](C)C(=O)N[C@@H](CCCCN)C(=O)O)[C@@H](C)O [MA-GAQFSKTAAK, GAQFSKTAAK] (Myristoyl-GAQFSKTAAK-OH; C-terminus assumed) | 56.6% | 37.4% | > 10 mg/mL
CCCCCCCCCCCCCC(=O)NCC(=O)N[C@@H](C)C(=O)N[C@@H](CCC(N)=O)C(=O)N[C@@H](Cc1ccccc1)C(=O)N[C@@H](CO)C(=O)N[C@@H](CCCCN)C(=O)N[C@H](C(=O)N[C@@H](C)C(=O)N[C@@H](C)C(=O)N[C@@H](CCCCN)C(=O)NCC(=O)N[C@@H](CCC(=O)O)C(=O)N[C@@H](C)C(=O)N[C@@H](C)C(=O)N[C@@H](C)C(=O)N[C@@H](CCC(=O)O)C(=O)O)[C@@H](C)O [MA-GAQFSKTAAKGEAAAE, GAQFSKTAAKGEAAAE] (Myristoyl-GAQFSKTAAKGEAAAE-OH; C-terminus assumed) | 99% | 30.3% | > 2 mg/mL
CCCCCCCCCCCCCC(=O)N[C@@H](CCCNC(=N)N)C(=O)N1CCC[C@H]1C(=O)NCC(=O)N[C@@H](CCC(=O)O)C(=O)N[C@@H](C)C(=O)N[C@@H](C)C(=O)N[C@H](C(=O)N[C@@H](C)C(=O)O)C(C)C [MA-RPGEAAVA, RPGEAAVA] (Myristoyl-RPGEAAVA-OH; C-terminus assumed) | 99% | 0% | 
CCCCCCCCCCCCCC(=O)N[C@H](C(=O)N[C@@H](C)C(=O)N[C@@H](C)C(=O)N[C@@H](CCCCN)C(=O)NCC(=O)N[C@@H](CCC(=O)O)C(=O)N[C@@H](C)C(=O)N[C@@H](C)C(=O)O)[C@@H](C)O [MA-TAAKGEAA, TAAKGEAA] (Myristoyl-TAAKGEAA-OH; C-terminus assumed) | 80.2% | 0% | < 1 mg/mL
Ac-AAAERPGEAAVA [Ac-AAAERPGEAAVA, AAAERPGEAAVA] | 29.5% | 51.2% | 
Ac-AAKGEA [Ac-AAKGEA, AAKGEA] | 9.2% | 10.6% | > 150 mg/mL
Ac-AKGEAAAERPGEAAVA [Ac-AKGEAAAERPGEAAVA, AKGEAAAERPGEAAVA] | 34.3% | 72.3% | 
Ac-GAQFSKTAAKGEAAAE [Ac-GAQFSKTAAKGEAAAE, GAQFSKTAAKGEAAAE] | 8.4% | 56.6% | 
Ac-GAQFSKTAAKGEAAAERPGE | 0.0% | 48.8% | 
Ac-RPGEAAVA [Ac-RPGEAAVA, RPGEAAVA] | 0.0% | 45.8% | 
